Literature values in article PMC2074382 (British Journal of Cancer, 1996).

How the values were obtained:
[1] = clinical; cited from earlier work
[2] = parameters: method as in Rowinsky et al., 1992; Verweij et al., 1993; conditions: daily x 5 schedule; ref Rowinsky et al., 1992; Verweij et al., 1993; cited from earlier work
[3] = parameters: method as in PMID 5081595, PMID 8137244; conditions: in vitro and in vivo pharmacology; cited from earlier work

Compound | induced toxicity [1] | dose-limiting toxicity [2] | potency relative to GI147211 (fold less potent) [3] [fold]
CCc1c2c(nc3ccc(OC(=O)N4CCC(N5CCCCC5)CC4)cc13)-c1cc3c(c(=O)n1C2)COC(=O)[C@]3(O)CC [Irinotecan] | neutropenia in addition to diarrhoea |  | 
CC[C@@]1(O)C(=O)OCc2c1cc1n(c2=O)Cc2cc3c(CN(C)C)c(O)ccc3nc2-1 [topotecan] |  | myelosuppression | 2.2
